One test relates to GP2D cells. The test is described as follows: Ras cellular assay, cell proliferation GP2D. Format: cell-based. The procedure:
(§1) For example, this assay can be also used to assess selective growth inhibition of a mutant Ras protein relative to a wildtype, or relative to a different mutant Ras protein.
ASPC-1 (ATCC CRL-1682), Panc-10.05 (ATCC CRL-2547), A427, GP2d cell lines or any other cell lines comprising a G12D mutation can be used to assess Ras cellular signaling in vitro, e.g., in response to a compound described herein. For example, ASPC-1 culture medium is prepared with RPMI-1640 and 10% heat-inactivated FBS. Panc-10.05 culture medium is prepared with RPMI-1640, 10 Units/mL human recombinant insulin, and 10% FBS. A427 cell culture is prepared with RPMI-1640 and 10% heat-inactivated FBS. A CellTiter-Glo (CTG) luminescent based assay (Promega) is used to assess growth of the cells, as a measurement of the ability of the compounds herein to inhibit Ras signaling in the cells. The cells (e.g., 800 per well) are seeded in their respective culture medium in standard tissue culture-treated 384-well format plates (Falcon #08-772-116) or ultra-low attachment surface 384-well format plates (S-Bio #MS-9384UZ). The day after plating, cells are treated with a dilution series (e.g., a 9 point 3-fold dilution series) of the compounds herein (e.g., approximately 40 μL final volume per well). Cell viability can be monitored (e.g., approximately 5 days later) according to the manufacturer's recommended instructions, where the CellTiter-Glo reagent is added (e.g., approximately 10 μL), vigorously mixed, covered, and placed on a plate shaker (e.g., approximately for 20 min) to ensure sufficient cell lysis prior to assessment of luminescent signal. The IC50 values are determined using the four parameter fit. The resulting IC50 value is a measurement of the ability of the test compound to reduce cell growth of Ras-driven cells (e.g., tumor cell lines) in vitro and/or in vivo.

The target in the next test is T1, K-Ras G12D (Homo sapiens, UniProt P01116, G12D).
T1 construct: made in house; host or cells: E. coli, e.g. BL21 (DE3)
T1 sequence (P01116 1-188 isoform P01116-2 G12D): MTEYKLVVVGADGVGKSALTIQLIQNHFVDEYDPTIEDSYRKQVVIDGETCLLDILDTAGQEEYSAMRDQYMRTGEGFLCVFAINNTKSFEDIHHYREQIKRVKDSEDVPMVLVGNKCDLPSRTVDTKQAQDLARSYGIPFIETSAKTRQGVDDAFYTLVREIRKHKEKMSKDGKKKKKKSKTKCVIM
The test is described as follows: PPI-HTRF assay, K-Ras G12D / SOS1 interaction. Type of test: biochemical. Particulars: HTRF, K-Ras G12D; read-out: PPI-HTRF-5 nM (K-Ras G12D IC50). From the text:
(§2) This assay can be also used to assess a selective inhibition or reduction of signaling output of a mutant Ras protein relative to a wildtype, or relative to a different mutant Ras protein. For example, the equilibrium interaction of wildtype Kras or K-Ras mutant (e.g., wildtype or a mutant thereof) with SOS1 (e.g., hSOS1) can be assessed as a proxy or an indication for a subject compound's ability to bind and inhibit Ras protein. HTRF assay detects from (i) a fluorescence resonance energy transfer (FRET) donor (e.g., antiGST-Europium) that is bound to GST-tagged K-Ras mutant to (ii) a FRET acceptor (e.g., anti-6His-XL665) bound to a His-tagged hSOS1.
(§3) The assay buffer can contain ˜5 mM HEPES pH 7.4, ˜150 mM NaCl, ˜1 mM DTT, 0.05% BSA and 0.0025% (v/v) Igepal. A Ras working solution is prepared in an assay buffer containing typically a suitable amount of the protein construct (e.g., GST-tagged K-Ras mutant) and the FRET donor (e.g., antiGST-Eu(K) from Cisbio, France). A SOS1 working solution is prepared in an assay buffer containing suitable amount of the protein construct (e.g., His-hSOS1) and the FRET acceptor (e.g., anti-6His-XL665 from Cisbio, France). A suitable amount of the protein construct will depend on the range of activity or range of IC50 values being detected or under investigation. For detecting IC50 within a range of 500 nM, the protein constructs of the same range of molarity can be utilized.
(§4) A fixed volume of DMSO with or without test compound is transferred into a 384-well plate. Ras working solution is added to all wells of the test plate. SOS1 working solution is added to all wells except for those that are subsequently filled the inhibitor control solution. Upon incubation for about 10 minutes or longer, the fluorescence is measured with a M1000Pro plate reader (Tecan) using HTRF detection (excitation 337 nm, emission 1: 620 nm, emission 2: 665 nm). Compounds are tested in duplicate at different concentrations (for example, 10 μM, 2.5 μM, 0.63 μM, 0.16 μM, 0.04 μM, 0.01 μM test compound). The ratiometric data (i.e., emission 2 divided by emission 1) is used to calculate IC50 values against Ras using GraphPad Prism (GraphPad software). Following this general procedure, samples are tested with or without a subject compound disclosed herein including compounds exemplified in Table 1 to assess their abilities to inhibit a mutant K-Ras relative to another K-Ras (e.g., different mutant or wildtype). Signaling output measured in terms of IC50 values can be obtained, a ratio of IC50 against one mutant relative to another mutant can be calculated. For instance, a selective reduction of K-Ras G12D signaling output can be evidenced by a ratio greater than one. In particular, a selective reduction of K-Ras G12D signaling relative to K-Ras WT signaling is evidenced if the ratio of IC50 (against K-Ras WT) to IC50 (against K-Ras G12D) is greater than 1.

In a further test the test system is SW620 cells. The test is described as follows: Ras cellular assay, cell proliferation SW620. Format: cell-based. Particulars: Homo sapiens, SW-620.
Text: as §1

The next test concerns the target T2, K-Ras G12V (Homo sapiens, UniProt P01116, G12V).
T2 construct: made in house; host or cells: E. coli, e.g. BL21 (DE3)
The test is described as follows: PPI-HTRF assay, K-Ras G12V / SOS1 interaction. The following applies: HTRF, K-Ras G12V; read-out: PPI-HTRF-5 nM (K-Ras G12V IC50). Format: biochemical.
Text: as §2, §3, §4
In general terms: In TR-FRET formats the signal depends on donor and acceptor labels being close together.

The next test deals with T3, wildtype K-Ras (Homo sapiens, UniProt P01116).
T3 construct: made in house; host or cells: E. coli, e.g. BL21 (DE3)
T3 sequence (P01116 1-188 isoform P01116-2): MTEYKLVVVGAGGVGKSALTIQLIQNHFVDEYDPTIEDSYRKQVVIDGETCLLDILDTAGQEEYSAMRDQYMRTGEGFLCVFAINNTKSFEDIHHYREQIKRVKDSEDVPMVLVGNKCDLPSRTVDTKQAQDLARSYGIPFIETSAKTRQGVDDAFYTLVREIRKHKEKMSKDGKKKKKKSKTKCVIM
The test is described as follows: PPI-HTRF assay, wildtype K-Ras / SOS1 interaction. Format: biochemical. Particulars: HTRF, K-Ras wt; read-out: PPI-HTRF-5 nM (K-Ras wt IC50).
Text: as §2, §3, §4

A further test deals with T4, K-Ras G12S (Homo sapiens, UniProt P01116, G12S).
T4 construct: made in house; host or cells: E. coli, e.g. BL21 (DE3)
T4 sequence (P01116 1-188 isoform P01116-2 G12S): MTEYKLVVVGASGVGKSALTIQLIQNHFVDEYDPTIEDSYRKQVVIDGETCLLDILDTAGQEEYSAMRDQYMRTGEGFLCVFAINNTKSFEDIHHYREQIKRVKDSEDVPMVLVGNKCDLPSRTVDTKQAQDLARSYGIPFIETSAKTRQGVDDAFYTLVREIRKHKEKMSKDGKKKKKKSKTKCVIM
The test is described as follows: PPI-HTRF assay, K-Ras G12S / SOS1 interaction. Format: biochemical. Particulars: read-out: PPI-HTRF-5 nM (K-Ras G12S IC50).
Text: as §2, §3, §4

The record followed here is US12059425B2, “Heterocyclic compounds and uses thereof” (Kumquat Biosciences Inc., priority 2022, dated 2024).

SMILES strings stand for the structures. Where only a bound is given, the exact number is not on record here.

T2 sequence (P01116 1-188 isoform P01116-2 G12V): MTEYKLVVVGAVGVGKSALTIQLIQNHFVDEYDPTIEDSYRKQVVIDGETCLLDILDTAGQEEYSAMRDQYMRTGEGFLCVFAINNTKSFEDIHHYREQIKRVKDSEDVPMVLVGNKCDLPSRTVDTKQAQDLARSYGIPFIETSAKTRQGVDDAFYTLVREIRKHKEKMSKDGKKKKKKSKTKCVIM

`N#Cc1c(N)sc2c(F)ccc(-c3c(Cl)c4c5c(nc(OC[C@@]67CCCN6C[C@H](F)C7)nc5c3F)N3CCC(C#N)CC3CO4)c12` (single isomer, unassigned) [compound 211]: the IC50 with GP2D cells and at K-Ras G12D was less than 5 µM throughout.
As to `N#Cc1c(N)sc2c(F)ccc(-c3c(Cl)c4c5c(nc(OC[C@@]67CCCN6C[C@H](F)C7)nc5c3F)N3CCC[C@@H]3CC(C(F)F)O4)c12` (single isomer, unassigned) [compound 212], the 50% inhibitory concentration (IC50) in the test on GP2D cells, at K-Ras G12D and with SW620 cells was less than 5 µM each time.
Take `N#Cc1c(N)sc2c(F)ccc(-c3c(Cl)c4c5c(nc(OC[C@@]67CCCN6C[C@H](F)C7)nc5c3F)N3CC5(CCN5C(=O)n5cncn5)CC3CO4)c12` (stereo partly drawn) [compound 190, 2-amino-4-(6′-chloro-4′-fluoro-2′-(((2R,7aS)-2-fluorotetrahydro-1H-pyrrolizin-7a(5H)-yl)methoxy)-1-(1H-1,2,4-triazole-1-carbonyl)-8a′,9′-dihydro-8′H,11′H-spiro[azetidine-2,10′-pyrrolo[2′,1′:3,4][1,4]oxazepino[5,6,7-de]quinazolin]-5′-yl)-7-fluorobenzo[b]thiophene-3-carbonitrile]: the IC50 in the test with GP2D cells and on K-Ras G12D was less than 5 µM throughout.
In the case of `N#Cc1c(N)sc2c(F)ccc(-c3c(Cl)c4c5c(nc(OCC67CCCN6C[C@H](F)C7)nc5c3F)N3CCCCC3CCO4)c12` (single isomer, unassigned) [compound 184], the IC50 in the test with GP2D cells and on K-Ras G12D was less than 5 µM in each case.
Take `N#CCC1CCN2c3nc(OC[C@@]45CCCN4C[C@H](F)C5)nc4c(F)c(-c5ccc(F)c6sc(N)c(C#N)c56)c(Cl)c(c34)OCC2C1` (single isomer, unassigned) [compound 162]: the IC50 (usually the concentration that inhibits the measured activity by half) in the test with GP2D cells was less than 5 µM.
`CN1c2nc(OC[C@@]34CCCN3C[C@H](F)C4)nc3c(F)c(-c4ccc(F)c5sc(N)c(C#N)c45)c(Cl)c(c23)OCC2OCCCC21` (stereo partly drawn) [compound 199, 2-amino-4-(6-chloro-4-fluoro-2-(((2R,7aS)-2-fluorotetrahydro-1H-pyrrolizin-7a(5H)-yl)methoxy)-13-methyl-8,8a,11,12,12a,13-hexahydro-10H-pyrano[3′,2′:6,7][1,5]oxazocino[4,3,2-de]quinazolin-5-yl)-7-fluorobenzo[b]thiophene-3-carbonitrile]: the IC50 at K-Ras G12V, on K-Ras G12D, on wildtype K-Ras and at K-Ras G12S was less than 5 µM throughout.
`CN1c2nc(OC[C@@]34CCCN3C[C@H](F)C4)nc3c(F)c(-c4ccc(F)c5sc(N)c(C#N)c45)c(Cl)c(c23)OC2CN(C(=O)C(F)F)CC21` (stereo partly drawn) [compound 147, 2-amino-4-(6-chloro-9-(2,2-difluoroacetyl)-4-fluoro-2-(((2R,7aS)-2-fluorotetrahydro-1H-pyrrolizin-7a(5H)-yl)methoxy)-11-methyl-7a,8,9,10,10a,11-hexahydropyrrolo[3′,4′:2,3][1,4]oxazepino [5,6,7-de]quinazolin-5-yl)-7-fluorobenzo[b]thiophene-3-carbonitrile]: the IC50 on K-Ras G12V, at K-Ras G12D, at wildtype K-Ras and at K-Ras G12S was less than 5 µM in each case.
In the test with GP2D cells, `N#Cc1c(N)sc2c(F)ccc(-c3c(Cl)c4c5c(nc(OC[C@@]67CCCN6C[C@H](F)C7)nc5c3F)N3CCC[C@@H]3CCO4)c12` [compound 183, 2-amino-4-((13aR)-10-chloro-8-fluoro-6-(((2R,7aS)-2-fluorotetrahydro-1H-pyrrolizin-7a(5H)-yl)methoxy)-1,2,3,12,13,13a-hexahydropyrrolo[1′,2′:5,6][1,5]oxazocino [4,3,2-de]quinazolin-9-yl)-7-fluorobenzo[b]thiophene-3-carbonitrile] displayed an IC50 of less than 5 µM.
As to `N#Cc1c(N)sc2c(F)ccc(-c3c(Cl)c4c5c(nc(OC[C@@]67CCCN6C[C@H](F)C7)nc5c3F)N3CCC(C(F)F)CC3CO4)c12` (stereo partly drawn) [compound 194, 2-amino-4-(6-chloro-10-(difluoromethyl)-4-fluoro-2-(((2R,7aS)-2-fluorotetrahydro-1H-pyrrolizin-7a(5H)-yl)methoxy)-8,8a,9,10,11,12-hexahydropyrido[2′,1′:3,4][1,4]oxazepino [5,6,7-de]quinazolin-5-yl)-7-fluorobenzo[b]thiophene-3-carbonitrile], the IC50 on K-Ras G12V, at K-Ras G12D, at wildtype K-Ras and at K-Ras G12S was less than 5 µM in each case.
For the molecule `CC(O)C1C[C@H]2CCCN2c2nc(OC[C@@]34CCCN3C[C@H](F)C4)nc3c(F)c(-c4ccc(F)c5sc(N)c(C#N)c45)c(Cl)c(c23)O1` (single isomer, unassigned) [compound 135], the concentration for half-maximal inhibition (IC50) was less than 5 µM in the test on GP2D cells and greater than 5 µM in the test with SW620 cells.
In the case of `CCN[C@@H]1CC[C@H]2COc3c(Cl)c(-c4ccc(F)c5sc(N)c(C#N)c45)c(F)c4nc(OC[C@@]56CCCN5C[C@H](F)C6)nc(c34)N2C1` [compound 119, 2-amino-4-((5aS,8R)-3-chloro-8-(ethylamino)-1-fluoro-12-(((2R,7aS)-2-fluorotetrahydro-1H-pyrrolizin-7a(5H)-yl)methoxy)-5,5a,6,7,8,9-hexahydropyrido[2′,1′:3,4][1,4]oxazepino [5,6,7-de]quinazolin-2-yl)-7-fluorobenzo[b]thiophene-3-carbonitrile], the half-inhibitory concentration (IC50) on K-Ras G12V, at K-Ras G12D, on wildtype K-Ras and at K-Ras G12S was less than 5 µM throughout.
As to `CN1c2nc(OC[C@@]34CCCN3C[C@H](F)C4)nc3c(F)c(-c4ccc(F)c5sc(N)c(C#N)c45)c(Cl)c(c23)OC2COCC21` (stereo partly drawn) [compound 166, 2-amino-4-(6-chloro-4-fluoro-2-(((2R,7aS)-2-fluorotetrahydro-1H-pyrrolizin-7a(5H)-yl)methoxy)-11-methyl-7a,8,10a,11-tetrahydro-10H-furo[3′,4′:2,3][1,4]oxazepino[5,6,7-de]quinazolin-5-yl)-7-fluorobenzo[b]thiophene-3-carbonitrile], the IC50 at K-Ras G12V, at K-Ras G12D, at wildtype K-Ras and at K-Ras G12S was less than 5 µM in each case.
